Measured values reported in patent EP0680950B1, “PROPENONE DERIVATIVES” (KYOWA HAKKO KOGYO CO., LTD., priority 1993, dated 1995).

Tested on: HeLa S3 cells
Assay: HeLa S3 Cell Growth Inhibition Test
Type: cell-based
Settings: Homo sapiens, 72 hours culture with compound, neutral red staining
Description: Each 0.1 ml of HeLa S3 cells which had been prepared to 3 x 10^4 cells/ml using a medium consisted of MEM medium, 10 % fetal bovine serum and 2 mM glutamine was distributed in each well of 96 well-microtiter plate. HeLa S3 was cultured at 37°C in a CO2 incubator for one night, each 0.05 ml of test compounds which had been appropriately diluted with the culture solution was added thereto and the mixture was cultured at 37°C for 72 hours in a CO2 incubator. Supernatant was removed, each 0.1 ml of the culture solution containing 0.02 % neutral red was added to the residue, the mixture was incubated at 37°C for one hour in a CO2 incubator and the cells were stained. Supernatant was removed and the residue was washed once with physiological saline. Then, the pigment was extracted with 0.001 N hydrochloric acid/30 % ethanol and the absorbance at 550 nm was measured by a microplatereader. A concentration of the test compound (IC50) at which the growth of cell is inhibited by 50 % was calculated by comparing the absorbance of non-treated cells and that of cells treated with a predetermined concentration of the test compound.

Row | IC50 | Structure (SMILES)
1 | 0.73 nM | COc1cc(C(=O)/C(C)=C/c2c[nH]c3cc(C)ccc23)cc(OC)c1OC [Compound 63, (E)-2-Methyl-3-(6-methylindol-3-yl)-1-(3,4,5-trimethoxyphenyl)-2-propen-1-one]
2 | 12 nM | COc1cc(C(=O)/C=C/c2c[nH]c3c(OC)c(OC)ccc23)cc(OC)c1OC [Compound 40, (E)-3-(6,7-Dimethoxyindol-3-yl)-1-(3,4,5-trimethoxyphenyl)-2-propen-1-one]
3 | 11 nM | COc1cc(C(=O)/C=C/c2cn(C(=O)COCC(=O)O)c3ccccc23)cc(OC)c1OC [Compound 67, (E)-3-(1-Diglycolylindol-3-yl)-1-(3,4,5-trimethoxyphenyl)-2-propen-1-one]
4 | 55 nM | COc1cc(C(=O)/C=C/c2cn(C)c3cc(NC(C)=O)ccc23)cc(OC)c1OC [Compound 38, (E)-3-(6-Acetamido-1-methylindol-3-yl)-1-(3,4,5-trimethoxyphenyl)-2-propen-1-one]
5 | 23 nM | COc1ccc(C(=O)n2cc(/C=C/C(=O)c3cc(OC)c(OC)c(OC)c3)c3ccccc32)cc1 [Compound 51, (E)--3-[1-(4-Methoxybenzoyl)indol-3-yl]-1-(3,4,5-trimethoxyphenyl)-2-propen-1-one]
6 | 31 nM | COc1cc(C(=O)/C=C/c2cn(C(=O)c3ccc(N(C)C)cc3)c3ccccc23)cc(OC)c1OC [Compound 57, (E)-3-[1-(4-Dimethylaminobenzoyl)indol-3-yl]-1-(3,4,5-trimethoxyphenyl)-2-propen-1-one]
7 | 23 nM | COc1cc(C(=O)/C=C/c2cn(C(=O)c3ccc(NC(C)=O)cc3)c3ccccc23)cc(OC)c1OC [Compound 56, (E)-3-[1-(4-Acetamidobenzoyl)indol-3-yl]-1-(3,4,5-trimethoxyphenyl)-2-propen-1-one]
8 | 2.3 nM | COc1cc(C(=O)C(=Cc2c[nH]c3ccccc23)c2ccccc2)cc(OC)c1OC [Compound 64, 3-(Indol-3-yl)-2-phenyl-1-(3,4,5-trimethoxyphenyl)-2-propen-1-one]
9 | 60 nM | COc1cc(C(=O)/C=C/c2c[nH]c3ccc(F)cc23)cc(OC)c1OC [Compound 29, (E)-3-(5-Fluoroindol-3-yl)-1-(3,4,5-trimethoxyphenyl)-2-propen-1-one]
10 | 20 nM | COc1cc(C(=O)/C=C/c2cn(C)c3ccccc23)cc(OC)c1OC [Compound 2, (E)-3-(1-Methylindol-3-yl)-1-(3,4,5-trimethoxyphenyl)-2-propen-1-one]
11 | 7.7 nM | COc1cc(C(=O)/C=C/c2cn(C(=O)c3cccnc3)c3ccccc23)cc(OC)c1OC [Compound 60, (E)-3-(1-Nicotinoylindol-3-yl)-1-(3,4,5-trimethoxyphenyl)-2-propen-1-one]
12 | 2.5 nM | CCc1ccc2c(/C=C(\C)C(=O)c3cc(OC)c(OC)c(OC)c3)c[nH]c2c1 [Compound 66, (E)-3-(6-Ethylindol-3-yl)-2-methyl-1-(3,4,5-trimethoxyphenyl)-2-propen-1-one]
13 | 25 nM | COc1cc(C(=O)/C=C/c2cn(C(=O)c3ccc(C)cc3)c3ccccc23)cc(OC)c1OC [Compound 50, (E)-3-[1-(4-Methylbenzoyl)indol-3-yl]-1-(3,4,5-trimethoxyphenyl)-2-propen-1-one]
14 | 58 nM | CCn1cc(/C=C/C(=O)c2cc(OC)c(OC)c(OC)c2)c2ccccc21 [Compound 3, (E)-3-(1-Ethylindol-3-yl)-1-(3,4,5-trimethoxyphenyl)-2-propen-1-one]
15 | 6.3 nM | CCCC/C(=C\c1c[nH]c2ccccc12)C(=O)c1cc(OC)c(OC)c(OC)c1 [Compound 65, (E)-2-Butyl-3-(indol-3-yl)-1-(3,4,5-trimethoxyphenyl)-2-propen-1-one]
16 | 28 nM | COc1cc(C(=O)/C=C/c2cn(C(=O)c3cc(OC)c(OC)c(OC)c3)c3ccccc23)cc(OC)c1OC [Compound 59, (E)-3-[1-(3,4,5-Trimethoxybenzoyl)indol-3-yl]-1-(3,4,5-trimethoxyphenyl)-2-propen-1-one]

Row | IC50 | Structure (SMILES)
17 | 6.3 nM | COc1cc(C(=O)/C=C/c2c[nH]c3cc(C)ccc23)cc(OC)c1OC [Compound 32, (E)-3-(6-Methylindol-3-yl)-1-(3,4,5-trimethoxyphenyl)-2-propen-1-one]
18 | 17 nM | COc1cc(C(=O)/C=C/c2cn(C(C)=O)c3ccccc23)cc(OC)c1OC [Compound 6, (E)-3-(1-Acetylindol-3-yl)-1-(3,4,5-trimethoxyphenyl)-2-propen-1-one]
19 | 260 nM | COc1cc(C(=O)/C=C/c2c(C)[nH]c3ccccc23)cc(OC)c1OC [Compound 12, (E)-3-(2-Methylindol-3-yl)-1-(3,4,5-trimethoxyphenyl)-2-propen-1-one]
20 | 200 nM | COc1cc(C(=O)/C=C/c2c[nH]c3c(OC)cccc23)cc(OC)c1OC [Compound 46, (E)-3-(7-Methoxyindol-3-yl)-1-(3,4,5-trimethoxyphenyl)-2-propen-1-one]
21 | 86 nM | COc1cc(C(=O)/C=C/c2c[nH]c3cccc(C)c23)cc(OC)c1OC [Compound 15, (E)-3-(4-Methylindol-3-yl)-1-(3,4,5-trimethoxyphenyl)-2-propen-1-one]
22 | 58 nM | COc1cc(C(=O)/C=C/c2cn(C(=O)c3cccc(C)c3)c3ccccc23)cc(OC)c1OC [Compound 52, (E)-3-[1-(3-Methylbenzoyl)indol-3-yl]-1-(3,4,5-trimethoxyphenyl)-2-propen-1-one]
23 | 34 nM | COc1cccc(C(=O)n2cc(/C=C/C(=O)c3cc(OC)c(OC)c(OC)c3)c3ccccc32)c1 [Compound 53, (E)-3-[1-(3-Methoxybenzoyl)indol-3-yl]-1-(3,4,5-trimethoxyphenyl)-2-propen-1-one]
24 | 110 nM | COc1cc(C(=O)/C=C/c2c[nH]c3ccc(C)cc23)cc(OC)c1OC [Compound 20, (E)-3-(5-Methylindol-3-yl)-1-(3,4,5-trimethoxyphenyl)-2-propen-1-one]
25 | 0.29 nM | COc1cc(C(=O)/C(C)=C/c2c[nH]c3ccccc23)cc(OC)c1OC [Compound 48, (E)-3-(Indol-3-yl)-2-methyl-1-(3,4,5-trimethoxyphenyl)-2-propen-1-one]
26 | 4.7 nM | CC/C(=C\c1c[nH]c2ccccc12)C(=O)c1cc(OC)c(OC)c(OC)c1 [Compound 62, (E)-2-Ethyl-3-(indol-3-yl)-1-(3,4,5-trimethoxyphenyl)-2-propen-1-one]
27 | 26 nM | COc1cc(C(=O)/C=C/c2cn(C(=O)c3ccccc3)c3ccccc23)cc(OC)c1OC [Compound 8, (E)-3-(1-Benzoylindol-3-yl)-1-(3,4,5-trimethoxyphenyl)-2-propen-1-one]
28 | 64 nM | COc1ccc(C(=O)n2cc(/C=C/C(=O)c3cc(OC)c(OC)c(OC)c3)c3ccccc32)cc1OC [Compound 58, (E)-3-[1-(3,4-Dimethoxybenzoyl)indol-3-yl]-1-(3,4,5-trimethoxyphenyl)-2-propen-1-one]
29 | 10 nM | COc1cc(C(=O)/C=C/c2c[nH]c3ccccc23)cc(OC)c1OC [Compound 1, (E)-3-(Indol-3-yl)-1-(3,4,5-trimethoxyphenyl)-2-propen-1-one]
30 | 9.7 nM | COc1cc(C(=O)/C=C/c2cn(C(=O)c3ccncc3)c3ccccc23)cc(OC)c1OC [Compound 61, (E)-3-(1-Isonicotinoylindol-3-yl)-1-(3,4,5-trimethoxyphenyl)-2-propen-1-one]
31 | 78 nM | COc1cc(C(=O)/C=C/c2c(Cl)n(C)c3ccccc23)cc(OC)c1OC [Compound 13, (E)-3-(2-Chloro-1-methylindol-3-yl)-1-(3,4,5-trimethoxyphenyl)-2-propen-1-one]
32 | 6 nM | CCC/C(=C\c1c[nH]c2ccccc12)C(=O)c1cc(OC)c(OC)c(OC)c1 [Compound 49, (E)-3-(Indol-3-yl)-2-propyl-1-(3,4,5-trimethoxyphenyl)-2-propen-1-one]
